Legend:
[1] = tested on: liver injury induced by galactosamine; assay: preventive effect of Desmodium adscendens decoction against galactosamine-induced liver injury in rats; type: in vivo, Sprague Dawley rats; settings: 48 h after D-galactosamine 650 mg/kg IP; oral gavage; Desmodium equivalent to 20 or 5 mg/kg D-pinitol, D-pinitol 20 mg/kg, silymarin 20 mg/kg
From the text: As far as the in vivo evaluation of the hepato-protective effect of Desmodium adscendens decoction is concerned, D-pinitol has a hepato-protective effect. One of the constituents of Desmodium adscendens is D-pinitol. […] In this in vivo experiment the preventive effect of a decoction of Desmodium adscendens against liver injury induced by galactosamine was investigated in rats. Silymarin was used as the reference agent. Silymarin is a mixture of various flavanolignans from the fruits of the milk thistle plant, Silybum marianum. The principal components are silybin, […]. In addition, small quantities of isosilybin are present in milk thistle. […] The liver injury and the possible hepato-protective effect were evaluated by determining the following parameters in serum: ALT (=GPT), AST (=GOT), ALP. […] After administration of the hepatotoxic agent D-galactosamine, both after 24 h and after 48 h, liver injury was observed through a marked increase in the three parameters determined (control vs. hepatotox).

[2] = tested on: ethanol-induced liver injury; assay: protective effect against ethanol-induced liver injury in rats; type: in vivo, male Wistar rats
From the text: The purpose of the experiment is to evaluate the hepatoprotective effects of decoct of Desmodium adscendens against ethanol-induced liver injury, standardized to its primary ingredient: D-pinitol. Materials and Methods: 66 male Wistar rats of 200-225 g (Charles River, Brussels, Belgium) were randomly divided into 6 groups: the negative control group (CON: no hepatotoxic agent, no treatment: 8 rats), the hepatotoxic group (HEP: induction of hepatotoxicity, no treatment: 20 rats), the Desmodium I group (induction of hepatotoxicity, treatment with Desmodium adscendens decoct, equivalent to 2 mg/kg of D-pinitol: 10 rats), the group II Desmodium (induction of hepatotoxicity, treatment with Desmodium adscendens decoct, equivalent to 10 mg/kg of D-pinitol: 10 rats), the D-pinitol group (PIN: induction of hepatotoxicity, treatment with 10 mg/kg of D-pinitol: 10 rats), the positive control group (SIL: induction of hepatotoxicity, treatment with 20 mg/kg of silymarin: 8 rats). 2 days prior to ethanol administration, an appropriate amount of lyophilized decoct, pinitol silymarin or suspended in water and administered by gavage (or vehicle for the control group). Hepatotoxicity was induced by daily oral gavage with a 55% ethanol solution (except for the negative control group). […] Ethanol was administered for a period of 7 weeks. Was administered daily, depending on the group, treated with the specific decoct, pinitol or silymarin (oral gavage) to the end of the experiment. For ethanol administration (default values), and at weeks 3, 4, 5 and 6, blood samples (1.5 ml) were taken from the lateral tail vein (Multi Fat 600, Sarstedt). This experiment was approved by the Ethics Committee for Animal Experiments of the University of Antwerpen (17-01-2011, 2010-37).
A schematic overview of the different treatment groups is given below next. Concentrations of enzyme aspartate transaminase (AST, GOT) and alanine transaminase (ALT, GPT) were in the serum samples from the test animals as determined by routine laboratory techniques (Senior, 2009). Elevated levels can be considered as an indication of liver cell destruction or a change in membrane permeability.
Statistics to analyze the difference between CON and HEP for AST and ALT, and between HEP and DES 1, DES 2, PIN and SIL for AST and ALT, was a mixed model analyze performed. The log-rank test was performed for statistical analysis of survival data.

[3] = tested on: 3T3-L1 adipocytes; settings: cited from earlier work
[4] = tested on: L6 rat muscle cells; settings: cited from earlier work
[5] = tested on: foam cells; settings: cited from earlier work
[6] = tested on: LPS-induced dendritic bone marrow cells; settings: cited from earlier work
[7] = tested on: neutrophils; settings: cited from earlier work
[8] = tested on: streptozotocin-induced diabetic mice; settings: mouse, in vivo; cited from earlier work
[9] = tested on: severely insulin-resistant mice; settings: mouse, in vivo; cited from earlier work
[10] = tested on: streptozotocin-induced diabetic rats; settings: rat, in vivo; cited from earlier work
[11] = tested on: liver injury with galactosamine; settings: after induction of liver injury with galactosamine; cited from earlier work
[12] = tested on: carrageenan-induced oedema of the paw; cotton pellet granuloma; settings: cited from earlier work
[13] = tested on: OVA-induced asthma; settings: mouse, in vivo; cited from earlier work
[14] = tested on: patients with type 2 diabetes; settings: cited from earlier work
[15] = tested on: insulin-resistant patients; settings: 20 mg/kg/day for 4 weeks; cited from earlier work
[16] = tested on: older, non-diabetic patients; settings: intake for 6 weeks; cited from earlier work
[17] = in vivo; cited from earlier work
[18] = after 4 weeks of ethanol, daily oral gavage, DES1 eq. 2, DES2 eq. 10 mg/kg D-pinitol, PIN 10 mg/kg, SIL 20 mg/kg
[19] = after 5 weeks of ethanol, daily oral gavage, DES1 eq. 2, DES2 eq. 10 mg/kg D-pinitol, PIN 10 mg/kg, SIL 20 mg/kg
[20] = after 6 weeks of ethanol, daily oral gavage, DES1 eq. 2, DES2 eq. 10 mg/kg D-pinitol, PIN 10 mg/kg, SIL 20 mg/kg
[21] = 13 weeks of treatment with 2×60 mg per day

## CO[C@H]1[C@H](O)[C@@H](O)[C@@H](O)[C@H](O)[C@@H]1O [D-pinitol, 3-O-methyl-chiro-inositol]
[1]
  ALT (GPT) in serum compared with the hepatotoxic group: decreased significantly
  AST (GOT) in serum compared with the hepatotoxic group: decreased significantly
[2]; W0, DES1 eq. 2, DES2 eq. 10 mg/kg D-pinitol, PIN 10 mg/kg, SIL 20 mg/kg
  survival of test animals: 100%
[2]; W1 of ethanol, DES1 eq. 2, DES2 eq. 10 mg/kg D-pinitol, PIN 10 mg/kg, SIL 20 mg/kg
  survival of test animals: 100%
[2]; W2 of ethanol, DES1 eq. 2, DES2 eq. 10 mg/kg D-pinitol, PIN 10 mg/kg, SIL 20 mg/kg
  survival of test animals: 70%
[2]; W3 of ethanol, DES1 eq. 2, DES2 eq. 10 mg/kg D-pinitol, PIN 10 mg/kg, SIL 20 mg/kg
  survival of test animals: 60%
[2]; W4 of ethanol, DES1 eq. 2, DES2 eq. 10 mg/kg D-pinitol, PIN 10 mg/kg, SIL 20 mg/kg
  survival of test animals: 60%
[2]; W5 of ethanol, DES1 eq. 2, DES2 eq. 10 mg/kg D-pinitol, PIN 10 mg/kg, SIL 20 mg/kg
  survival of test animals: 50%
[2]; W6 of ethanol, DES1 eq. 2, DES2 eq. 10 mg/kg D-pinitol, PIN 10 mg/kg, SIL 20 mg/kg
  survival of test animals: 40%
[2]; W6 of ethanol, DES1 eq. 2, DES2 eq. 10 mg/kg D-pinitol, PIN 10 mg/kg, SIL 20 mg/kg, listed as PIN
  survival of test animals: 40%
[2]; [18]
  Serum ALT ALT_4 Average: 75.9
  Serum AST AST_4 Average: 89.3 U/I
[2]; [19]
  Serum ALT ALT_5 Mean: 61.6
  Serum AST AST_5 Average: 78.3 U/I
[2]; [20]
  Serum ALT ALT_6 Mean: 65.6
  Serum AST AST_6 Mean: 86.3 U/I
[2]; log-rank test, 6 weeks, DES 1 eq. 2, DES 2 eq. 10 mg/kg pinitol, pinitol 10 mg/kg, silymarin 20 mg/kg
  statistical difference in survival vs the hepatotoxic group: No statistically significant difference
[3]; 1 mM
  expression of adiponectin mRNA: increases expression of adiponectin mRNA
[3]; 0.5 and 1 mM
  mRNA expression of GLUT4, IRS, PPARγ and C/EBP: increases the mRNA expression
[4]; L6 muscle cells
  basal uptake of 2-deoxyglucose: increases the basal uptake of 2-deoxyglucose
[4]; L6 rat muscle cells
  translocation of GLUT4 to the cell membrane: induces the translocation of GLUT4 to the cell membrane
[5]
  formation of foam cells: moderately decreases
[6]; LPS-induced
  production of IL-12 and pro-inflammatory cytokines: reduces the production
[6]; in vitro and in vivo
  expression of MHC-I, MHC-II, CD80 and CD86: decreases the expression
[7]
  TNF-alpha expression: inhibits TNF-alpha expression
[8]
  hypoglycaemic effect: acute and chronic hypoglycaemic effect
[9]
  efficacy: not effective
[10]
  AST, ALT and alkaline phosphatase values in the liver: normalises
  blood glucose, haemoglobin and insulin: lowers blood glucose haemoglobin and increases insulin
  effect on lipids: lipid-lowering effect
[11]
  AST and ALT liver values and TNF-α values: normalises
  lipid peroxidation: reduces lipid peroxidation
[12]; carrageenan-induced oedema of the paw
  effect against acute inflammation: anti-inflammatory properties
[12]; cotton pellet granuloma
  effect against subacute inflammation: anti-inflammatory properties
[13]
  hyperreactivity and inflammation observed in asthma: reduces
  number of inflammatory cells in bronchoalveolar lavage fluid: decreases
[14]; [21]
  HDL cholesterol values: increased
  total cholesterol, LDL/HDL ratio and systolic and diastolic blood pressures: decreased
[14]; human, in vivo
  fasting glucose values, HbA1c values and insulin: favourable effect
[14]; uncontrolled type 2 diabetes, 12 weeks, 20 mg/kg/day, in addition to the usual therapy
  fasting and postprandial glucose values and HbA1c values: improves
[14]; uncontrolled type 2 diabetes, 12 weeks, 20 mg/kg/day
  levels of adiponectin, leptin, C-reactive protein (CRP) and free fatty acids: does not significantly change
[15]
  basal and insulin-mediated glucose or lipid metabolism: no effect
[16]
  insulin-mediated glucose metabolism: no effect
[17]
  metabolism in humans: metabolised partly to D-chiro-inositol
